For experiment [1], the system named is Hedgehog pathway activation on 10T1/2/Smo#3 cells (C3H10T1/2 cells transfected with human Smoothened receptor). In words: Hedgehog pathway activation on 10T1/2/Smo#3 cells measured by ALP activity. Conditions: Mus musculus, C3H 10T1/2, 10T1/2/Smo#3 cells. The class given is cell-based. In a few lines: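 C3H10T1/2 cells stably expressing human Smoothened were activated with hShh-conditioned medium (10-20%) or 500 nM SAG, with test compounds present. Pathway block read as inhibited ALP activity (4-methylumbelliferyl phosphate fluorescence); viability checked by CellTiter-Blue. IC50 values reported.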

For experiment [2], the system named is Hedgehog pathway activation (GLi-luciferase reporter) in Shh Light II reporter cells. In words: Hedgehog pathway activation on Shh Light II reporter cells measured by luciferase activity. The following applies: Mus musculus, Shh Light II. The class given is cell-based. The essentials:
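Shh Light II reporter cells carrying a hedgehog-responsive GLi-luciferase reporter were stimulated either with 500 nM SAG, a direct Smoothened agonist, or with conditioned media containing human Sonic Hedgehog (hShh). Test compounds were evaluated for blocking this pathway activation, quantified by luciferase activity. Cell viability was monitored in parallel with the Celltiter-Blue® assay.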

Where [3] appears, read: measured by ALP activity, read-out: ALP (IC50, inhibition of Hedgehog pathway activation).
Setting [4] is: hShh activation, read-out: Shh (IC50, inhibition of Hedgehog pathway activation).
The mark [5] stands for this setting: hShh activation, ALP activity, read-out: 10T1/2/Smo#3 ALP activity (hShh Activation).
[6] abbreviates: SAG activation (500 nM SAG), read-out: Shh Light II luciferase activity (SAG activation).
Where [7] appears, read: hShh activation, read-out: Shh Light II luciferase activity (hShh activation).

From US8871767B2, “2-arylimidazo[1,2-B]pyridazine, 2-phenylimidazo[1,2-A]pyridine, and 2-phenylimidazo[1,2-A]pyrazine derivatives” (Hengrui (USA) Ltd., priority 2010, dated 2014) come the findings set out here.

pIC50: −log10 of the molar value. Like-named read-outs stand apart in the source and are kept apart here. A value given as a limit tells only on which side of the number the result lay.

Turning to `CC(C)(C)C(=O)Nc1cc(-c2cn3nc(OCCO)ccc3n2)ccc1C(F)(F)F` [Example 377, N-(5-(6-(2-hydroxyethoxy)imidazo[1,2-b]pyridazin-2-yl)-2-(trifluoromethyl)phenyl)pivalamide], the pIC50 is 6.15 in experiment [1] (setting [3]) and 6.18 in experiment [2] (setting [4]).
With `Cc1ccc(-c2cn3nc(-c4ccc(C(=O)O)cc4C(F)(F)F)ccc3n2)cc1NC(=O)C(C)(C)C` [Example 479, 4-(2-(4-methyl-3-pivalamidophenyl)imidazo[1,2-b]pyridazin-6-yl)-3-(trifluoromethyl)benzoic acid], the pIC50 in experiment [1] (setting [5]) is > 6.52; in experiment [1] (setting [3]), 7.07; in experiment [2] (setting [6]), > 6.52; in experiment [2] (setting [4]) it was 8.22; in experiment [2] (setting [7]), > 6.52.
As for `CN(C)c1cccc(-c2ccc3nc(-c4ccc(C(F)(F)F)c(NC(=O)C(C)(C)C)c4)cn3n2)c1` [Example 256, N-(5-(6-(3-(dimethylamino)phenyl)imidazo[1,2-b]pyridazin-2-yl)-2-(trifluoromethyl)phenyl)pivalamide], the figures for the pIC50 in experiment [1] (setting [3]) and in experiment [2] (setting [4]) were 6.35 and 5.94, respectively.
`CC(C)(C)C(=O)Nc1cc(-c2cn3nc(N4CCOCC4)ccc3n2)ccc1C(F)(F)F` [Example 232, N-(5-(6-morpholinoimidazo[1,2-b]pyridazin-2-yl)-2-(trifluoromethyl)phenyl)pivalamide]: the pIC50 in experiment [1] (setting [3]) was 6.38; in experiment [2] (setting [4]), 6.37.
In the case of `Cc1ccc(-c2cn3nc(-c4cccc(C=CC(=O)NO)c4)ccc3n2)cc1NC(=O)C(C)(C)C` [compound 559], the values for the pIC50 in experiment [1] (setting [3]) and in experiment [2] (setting [4]) were 6.22 and 6.49, respectively.
Consider `CC(C)(C)C(=O)Nc1cc(-c2cn3nc(N4CCC(N5CCOCC5)CC4)ccc3n2)ccc1C(F)(F)F` [Example 369, N-(5-(6-(4-morpholinopiperidin-1-yl)imidazo[1,2-b]pyridazin-2-yl)-2-(trifluoromethyl)phenyl)pivalamide], for which the pIC50 in experiment [1] (setting [5]) was 5.52 to 6.52; in experiment [1] (setting [3]), 6.44; in experiment [2] (setting [6]) it was 5.52 to 6.52; in experiment [2] (setting [4]) it was 6.15; in experiment [2] (setting [7]) it was 5.52 to 6.52.
Take `COc1ccccc1-c1ccc2nc(-c3ccc(C(F)(F)F)c(NC(=O)C(C)(C)C)c3)cn2n1` [Example 172, N-(5-(6-(2-methoxyphenyl)imidazo[1,2-b]pyridazin-2-yl)-2-(trifluoromethyl)phenyl)pivalamide]: the pIC50 in experiment [1] (setting [3]) is 6.39; in experiment [2] (setting [4]) it was 6.03.
`Cc1ccc(-c2cn3nc(-c4cccc(S(=O)(=O)N(C)C)c4)ccc3n2)cc1NC(=O)C(C)(C)C` [Example 451, N-(5-(6-(3-(N,N-dimethylsulfamoyl)phenyl)imidazo[1,2-b]pyridazin-2-yl)-2-methylphenyl)pivalamide]: the values for the pIC50 in experiment [1] (setting [3]) and in experiment [2] (setting [4]) were 6.00 and 6.02, respectively.
In the case of `Cc1c(-c2ccccc2)nc2ccc(N3CCN(C(=O)OC(C)(C)C)CC3)nn12` [Example 158, tert-butyl 4-(3-methyl-2-phenylimidazo[1,2-b]pyridazin-6-yl)piperazine-1-carboxylate], the pIC50 in experiment [1] (setting [5]) was 4.52 to 5.52; in experiment [1] (setting [3]) it was 5.13; in experiment [2] (setting [6]), 5.52 to 6.52; in experiment [2] (setting [4]), 6.07; in experiment [2] (setting [7]), 4.52 to 5.52.
Take `CCOC(=O)CCCOc1ccc(-c2ccc3nc(-c4ccc(C)c(NC(=O)C(C)(C)C)c4)cn3n2)c(C(F)(F)F)n1` [Example 432, ethyl 4-(5-(2-(4-methyl-3-pivalamidophenyl)imidazo[1,2-b]pyridazin-6-yl)-6-(trifluoromethyl)pyridin-2-yloxy)butanoate]: the values for the pIC50 in experiment [1] (setting [3]) and in experiment [2] (setting [4]) were 6.17 and 6.92, respectively.
Turning to `CN1CCC(Oc2ccc3nc(-c4ccc(C(F)(F)F)c(NC(=O)C(C)(C)C)c4)cn3n2)CC1` [Example 305, N-(5-(6-(1-methylpiperidin-4-yloxy)imidazo[1,2-b]pyridazin-2-yl)-2-(trifluoromethyl)phenyl)pivalamide], the values for the pIC50 in experiment [1] (setting [3]) and in experiment [2] (setting [4]) were 5.46 and 5.72, respectively.
For `COCCNC1CCN(c2ccc3nc(-c4ccc(C(F)(F)F)c(NC(=O)C(C)(C)C)c4)cn3n2)CC1` [Example 368, N-(5-(6-(4-(2-methoxyethylamino)piperidin-1-yl)imidazo[1,2-b]pyridazin-2-yl)-2-(trifluoromethyl)phenyl)pivalamide], in that order: 6.49 and 6.93.
For `COc1ccc2nc(-c3ccc(C)c(NC(=O)C(C)(C)C)c3)cn2n1` [Example 94, N-(5-(6-methoxyimidazo[1,2-b]pyridazin-2-yl)-2-methylphenyl)pivalamide] the same measures were 5.82 and 6.21.
For the compound `COc1ccncc1-c1ccc2nc(-c3ccc(C(F)(F)F)c(NC(=O)C(C)(C)C)c3)cn2n1` [Example 384, N-(5-(6-(4-methoxypyridin-3-yl)imidazo[1,2-b]pyridazin-2-yl)-2-(trifluoromethyl)phenyl)pivalamide], the pIC50 in experiment [1] (setting [3]) was 6.64; in experiment [2] (setting [4]), 6.16.
Turning to `CCOc1ccc2nc(-c3ccc(C(F)(F)F)c(NC(=O)C4CCCCC4)c3)cn2n1` [Example 190, N-(5-(6-ethoxyimidazo[1,2-b]pyridazin-2-yl)-2-(trifluoromethyl)phenyl)cyclohexanecarboxamide], the pIC50 in experiment [1] (setting [3]) was 5.28; in experiment [2] (setting [4]), < 5.00.
As to `CN(C)[C@@H]1CCN(c2ccc3nc(-c4ccc(C(F)(F)F)c(NC(=O)C(C)(C)C)c4)cn3n2)C1` [Example 470, (R)-N-(5-(6-(3-(dimethylamino)pyrrolidin-1-yl)imidazo[1,2-b]pyridazin-2-yl)-2-(trifluoromethyl)phenyl)pivalamide], the pIC50 in experiment [1] (setting [3]) was 7.55; in experiment [2] (setting [4]), 7.19.
As for `Cc1ccc(-c2cn3nc(-c4ccc(C(=O)Nc5ccccc5N)cc4)ccc3n2)cc1NC(=O)C(C)(C)C` [compound 597], the pIC50 is > 6.52 in experiment [1] (setting [5]); 6.55 in experiment [1] (setting [3]); > 6.52 in experiment [2] (setting [6]); 7.41 in experiment [2] (setting [4]); > 6.52 in experiment [2] (setting [7]).
Regarding `Cc1ccc(-c2cn3nc(-c4ccc(C(N)=NO)cc4Cl)ccc3n2)cc1NC(=O)C(C)(C)C` [compound 568], the pIC50 in experiment [1] (setting [3]) and in experiment [2] (setting [4]) was 7.00 in each case.
Regarding `Cc1ccc(-c2cn3nc(N4CCC(N(C)C(=O)C(N)C(C)C)C4)ccc3n2)cc1NC(=O)C(C)(C)C` (centres unmarked) [Example 637, 2-amino-N,3-dimethyl-N-(1-(2-(4-methyl-3-pivalamidophenyl)imidazo[1,2-b]pyridazin-6-yl)pyrrolidin-3-yl)butanamide], the pIC50 is 6.38 in experiment [1] (setting [3]) and 5.66 in experiment [2] (setting [4]).
For `CCNS(=O)(=O)c1cc(-c2cn3nc(-c4cccnc4C(F)(F)F)ccc3n2)ccc1Cl` [Example 701, 2-chloro-N-ethyl-5-(6-(2-(trifluoromethyl)pyridin-3-yl)imidazo[1,2-b]pyridazin-2-yl)benzenesulfonamide], in that order: < 5.00 and 5.58.
Consider `CC(C)(C)C(=O)Nc1cc(-c2cn3nc(N4CCCCC4)ccc3n2)ccc1C(F)(F)F` [Example 288, N-(5-(6-(piperidin-1-yl)imidazo[1,2-b]pyridazin-2-yl)-2-(trifluoromethyl)phenyl)pivalamide], for which the pIC50 is 6.59 in experiment [1] (setting [3]) and 6.46 in experiment [2] (setting [4]).
In the case of `CC(C)c1ccc2nc(-c3ccc(C(F)(F)F)c(NC(=O)C(C)(C)C)c3)cn2n1` [Example 140, N-(5-(6-isopropylimidazo[1,2-b]pyridazin-2-yl)-2-(trifluoromethyl)phenyl)pivalamide], the pIC50 in experiment [1] (setting [3]) was 6.50; in experiment [2] (setting [4]), 6.14.
